# Data from PubChem BioAssay AID1259407 (Chemical Carcinogenesis Research Information System (CCRIS), 2018).
# Active and inactive are the calls of the source. No rule for the calls is given here.
# Test system: CCRIS mutagenicity, Ames/micronucleus/aberration tests
# Assay: CCRIS mutagenicity studies
# [1] = Test System: AMES SALMONELLA TYPHIMURIUM, Strain/Indicator: TA98, Metabolic Activation: NONE, Method: STANDARD PLATE
# [2] = Test System: AMES SALMONELLA TYPHIMURIUM, Strain/Indicator: TA98, Metabolic Activation: RAT, LIVER, S-9, AROCLOR 1254, Method: STANDARD PLATE
# [3] = Test System: AMES SALMONELLA TYPHIMURIUM, Strain/Indicator: TA100, Metabolic Activation: NONE, Method: STANDARD PLATE
# [4] = Test System: AMES SALMONELLA TYPHIMURIUM, Strain/Indicator: TA100, Metabolic Activation: RAT, LIVER, S-9, AROCLOR 1254, Method: STANDARD PLATE
# [5] = Test System: AMES SALMONELLA TYPHIMURIUM, Strain/Indicator: TA98, Metabolic Activation: NONE, Method: PREINCUBATION
# [6] = Test System: AMES SALMONELLA TYPHIMURIUM, Strain/Indicator: TA100, Metabolic Activation: NONE, Method: PREINCUBATION
# [7] = Test System: AMES SALMONELLA TYPHIMURIUM, Strain/Indicator: TA1535, Metabolic Activation: NONE, Method: STANDARD PLATE
# [8] = Test System: AMES SALMONELLA TYPHIMURIUM, Strain/Indicator: TA1537, Metabolic Activation: NONE, Method: STANDARD PLATE
# [9] = Test System: E. COLI, Strain/Indicator: WP2 UVRA, Metabolic Activation: NONE, Method: STANDARD PLATE
# [10] = Test System: AMES SALMONELLA TYPHIMURIUM, Strain/Indicator: TA98, Metabolic Activation: HAMSTER, LIVER, S-9, AROCLOR 1254 (10%), Method: PREINCUBATION
# [11] = Test System: AMES SALMONELLA TYPHIMURIUM, Strain/Indicator: TA98, Metabolic Activation: RAT, LIVER, S-9, AROCLOR 1254 (10%), Method: PREINCUBATION
# [12] = Test System: AMES SALMONELLA TYPHIMURIUM, Strain/Indicator: TA100, Metabolic Activation: HAMSTER, LIVER, S-9, AROCLOR 1254 (10%), Method: PREINCUBATION
# [13] = Test System: AMES SALMONELLA TYPHIMURIUM, Strain/Indicator: TA100, Metabolic Activation: RAT, LIVER, S-9, AROCLOR 1254 (10%), Method: PREINCUBATION
# [14] = Test System: AMES SALMONELLA TYPHIMURIUM, Strain/Indicator: TA1535, Metabolic Activation: HAMSTER, LIVER, S-9, AROCLOR 1254 (10%), Method: PREINCUBATION
# [15] = Test System: AMES SALMONELLA TYPHIMURIUM, Strain/Indicator: TA1535, Metabolic Activation: NONE, Method: PREINCUBATION
# [16] = Test System: AMES SALMONELLA TYPHIMURIUM, Strain/Indicator: TA1535, Metabolic Activation: RAT, LIVER, S-9, AROCLOR 1254 (10%), Method: PREINCUBATION
# [17] = Test System: AMES SALMONELLA TYPHIMURIUM, Strain/Indicator: TA1537, Metabolic Activation: HAMSTER, LIVER, S-9, AROCLOR 1254 (10%), Method: PREINCUBATION
# [18] = Test System: AMES SALMONELLA TYPHIMURIUM, Strain/Indicator: TA1537, Metabolic Activation: NONE, Method: PREINCUBATION
# [19] = Test System: AMES SALMONELLA TYPHIMURIUM, Strain/Indicator: TA1537, Metabolic Activation: RAT, LIVER, S-9, AROCLOR 1254 (10%), Method: PREINCUBATION
# [20] = Test System: AMES SALMONELLA TYPHIMURIUM, Strain/Indicator: TA98, Metabolic Activation: RAT, LIVER, S-9, KANECHLOR 500, Method: PREINCUBATION
# [21] = Test System: AMES SALMONELLA TYPHIMURIUM, Strain/Indicator: TA100, Metabolic Activation: RAT, LIVER, S-9, KANECHLOR 500, Method: PREINCUBATION
# [22] = Test System: AMES SALMONELLA TYPHIMURIUM, Strain/Indicator: TA1538, Metabolic Activation: NONE, Method: STANDARD PLATE
compound,measurement,setting,value
O=C(/C=C/c1ccccc1)c1ccc(F)cc1,mutagenic call,[1],inactive; negative
same,mutagenic call,[2],inactive; negative
same,mutagenic call,[3],inactive; negative
same,mutagenic call,[4],inactive; negative
CCOC(=O)[C@H]1O[C@@H]1C(=O)N[C@@H](CC(C)C)C(=O)NCCC(C)C,mutagenic call,[5],inactive; negative
same,mutagenic call,[1],inactive; negative
same,mutagenic call,"Test System: AMES SALMONELLA TYPHIMURIUM, Strain/Indicator: TA98, Metabolic Activation: RAT, LIVER, S-9, Method: PREINCUBATION",inactive; negative
same,mutagenic call,"Test System: AMES SALMONELLA TYPHIMURIUM, Strain/Indicator: TA98, Metabolic Activation: RAT, LIVER, S-9, Method: STANDARD PLATE",inactive; negative
same,mutagenic call,[6],inactive; negative
same,mutagenic call,[3],inactive; negative
same,mutagenic call,"Test System: AMES SALMONELLA TYPHIMURIUM, Strain/Indicator: TA100, Metabolic Activation: RAT, LIVER, S-9, Method: PREINCUBATION",inactive; negative
same,mutagenic call,"Test System: AMES SALMONELLA TYPHIMURIUM, Strain/Indicator: TA100, Metabolic Activation: RAT, LIVER, S-9, Method: STANDARD PLATE",inactive; negative
same,mutagenic call,[7],inactive; negative
same,mutagenic call,"Test System: AMES SALMONELLA TYPHIMURIUM, Strain/Indicator: TA1535, Metabolic Activation: RAT, LIVER, S-9, Method: STANDARD PLATE",inactive; negative
same,mutagenic call,[8],inactive; negative
same,mutagenic call,"Test System: AMES SALMONELLA TYPHIMURIUM, Strain/Indicator: TA1537, Metabolic Activation: RAT, LIVER, S-9, Method: STANDARD PLATE",inactive; negative
same,mutagenic call,[9],inactive; negative
same,mutagenic call,"Test System: E. COLI, Strain/Indicator: WP2 UVRA, Metabolic Activation: RAT, LIVER, S-9, Method: STANDARD PLATE",inactive; negative
Nc1ccc2c(c1)C(=O)/C(=N/Nc1ccc(-c3ccc(N/N=C4/C(=O)c5c(N)cc(S(=O)(=O)O)cc5C=C4S(=O)(=O)O)cc3)cc1)C(S(=O)(=O)O)=C2,mutagenic call,[10],active; positive
same,mutagenic call,[5],active; positive
same,mutagenic call,[11],inactive; negative
same,mutagenic call,[12],inactive; negative
same,mutagenic call,[6],inactive; negative
same,mutagenic call,[13],inactive; negative
same,mutagenic call,[14],inactive; negative
same,mutagenic call,[15],inactive; negative
same,mutagenic call,[16],inactive; negative
same,mutagenic call,[17],inactive; negative
same,mutagenic call,[18],active; positive
same,mutagenic call,[19],inactive; negative
COc1ccc2cc3c4c(cc(OC)c(OC)c4c2c1)CCN3C,mutagenic call,"Test System: AMES SALMONELLA TYPHIMURIUM, Strain/Indicator: TA100, Metabolic Activation: RAT, LIVER, S-9, PHENOBARBITAL AND BETA-NAPHTHOFLAVONE, Method: PREINCUBATION",inactive; negative
Cc1ccc2cc3c(cc2c1)-c1cccc2cccc-3c12,mutagenic call,"Test System: AMES SALMONELLA TYPHIMURIUM, Strain/Indicator: TA100, Metabolic Activation: RAT, LIVER, S-9, AROCLOR 1254",active; positive
CC(=O)Nc1ccc2ccccc2n1,mutagenic call,[5],inactive; negative
same,mutagenic call,[20],inactive; negative
same,mutagenic call,[6],inactive; negative
same,mutagenic call,[21],inactive; negative
O=[N+]([O-])c1cc2c(cc1Cl)Oc1cc(Cl)c(Cl)cc1O2,mutagenic call,[1],active; positive
same,mutagenic call,"Test System: AMES SALMONELLA TYPHIMURIUM, Strain/Indicator: TA98, Metabolic Activation: RAT, LIVER, S-9, AROCLOR, Method: STANDARD PLATE",active; positive
same,mutagenic call,[3],active; positive
same,mutagenic call,"Test System: AMES SALMONELLA TYPHIMURIUM, Strain/Indicator: TA100, Metabolic Activation: RAT, LIVER, S-9, AROCLOR, Method: STANDARD PLATE",active; positive
CCCCCC(O)CC(=O)CCC1CCC(O)C(OC)C1 (stereo unspecified),mutagenic call,[1],inactive; negative
same,mutagenic call,[2],inactive; negative
same,mutagenic call,[3],inactive; negative
same,mutagenic call,[4],active; positive
same,mutagenic call,[7],inactive; negative
same,mutagenic call,"Test System: AMES SALMONELLA TYPHIMURIUM, Strain/Indicator: TA1535, Metabolic Activation: RAT, LIVER, S-9, AROCLOR 1254, Method: STANDARD PLATE",active; positive
same,mutagenic call,[22],inactive; negative
same,mutagenic call,"Test System: AMES SALMONELLA TYPHIMURIUM, Strain/Indicator: TA1538, Metabolic Activation: RAT, LIVER, S-9, AROCLOR 1254, Method: STANDARD PLATE",inactive; negative
O=C(O)[C@@H]1CS[C@H](c2ccccc2O)N1C(=O)CCS,mutagenic call,[1],inactive; negative
same,mutagenic call,"Test System: AMES SALMONELLA TYPHIMURIUM, Strain/Indicator: TA98, Metabolic Activation: S-9, Method: STANDARD PLATE",inactive; negative
same,mutagenic call,[3],inactive; negative
same,mutagenic call,"Test System: AMES SALMONELLA TYPHIMURIUM, Strain/Indicator: TA100, Metabolic Activation: S-9, Method: STANDARD PLATE",inactive; negative
same,mutagenic call,[7],inactive; negative
same,mutagenic call,"Test System: AMES SALMONELLA TYPHIMURIUM, Strain/Indicator: TA1535, Metabolic Activation: S-9, Method: STANDARD PLATE",inactive; negative
same,mutagenic call,[8],inactive; negative
same,mutagenic call,"Test System: AMES SALMONELLA TYPHIMURIUM, Strain/Indicator: TA1537, Metabolic Activation: S-9, Method: STANDARD PLATE",inactive; negative
same,mutagenic call,[22],inactive; negative
same,mutagenic call,"Test System: AMES SALMONELLA TYPHIMURIUM, Strain/Indicator: TA1538, Metabolic Activation: S-9, Method: STANDARD PLATE",inactive; negative
same,mutagenic call,"Test System: E. COLI, Strain/Indicator: WP2, Metabolic Activation: NONE, Method: STANDARD PLATE",inactive; negative
same,mutagenic call,[9],inactive; negative
same,mutagenic call,"Test System: E. COLI, Strain/Indicator: WP2 UVRA, Metabolic Activation: S-9, Method: STANDARD PLATE",inactive; negative
C=CC(=O)OCCN(C)C,mutagenic call,[10],inactive; negative
same,mutagenic call,[5],inactive; negative
same,mutagenic call,[11],inactive; negative
same,mutagenic call,[12],inactive; negative
same,mutagenic call,[6],inactive; negative
same,mutagenic call,[13],inactive; negative
same,mutagenic call,[14],inactive; negative
same,mutagenic call,[15],inactive; negative
same,mutagenic call,[16],inactive; negative
same,mutagenic call,[17],inactive; negative
same,mutagenic call,[18],inactive; negative
same,mutagenic call,[19],inactive; negative
Cc1c(O)cc([N+](=O)[O-])cc1[N+](=O)[O-],mutagenic call,[20],inactive; negative
same,mutagenic call,[6],inactive; negative
same,mutagenic call,[21],inactive; negative
